In ChEMBL document CHEMBL1127517 (J Med Chem, 1994):

Legend:
Rattus norvegicus [1] = experiment: Distribution of radio activity in tissues of unfasted male rats was measured as regional uptake at 30 min of time in cortex after intravenous administration; format: ADME, organism-based; details: in vivo, 0.5 h
Rattus norvegicus [2] = experiment: Distribution of radio activity in tissues of unfasted male rats was measured at 30 min of time in skin after intravenous administration; format: ADME, organism-based; details: in vivo, 0.5 h
Rattus norvegicus [3] = experiment: Distribution of radio activity in tissues of unfasted male rats was measured at 2 min of time in thyroid after intravenous administration; format: ADME, organism-based, Thyroid gland; details: in vivo
Rattus norvegicus [4] = experiment: Distribution of radio activity in tissues of unfasted male rats was measured as regional uptake at 120 min of time in striatum after intravenous administration; format: ADME, organism-based; details: in vivo, 2 h
[5] = molecular target: Sodium-dependent dopamine transporter (Rattus norvegicus, UniProt P23977); experiment: Inhibitory constant towards reuptake of [125I]-13 from dopamine transporter in rat striatal membranes; format: cell membranes, Membrane
Sodium-dependent dopamine transporter, sequence (P23977 whole entry): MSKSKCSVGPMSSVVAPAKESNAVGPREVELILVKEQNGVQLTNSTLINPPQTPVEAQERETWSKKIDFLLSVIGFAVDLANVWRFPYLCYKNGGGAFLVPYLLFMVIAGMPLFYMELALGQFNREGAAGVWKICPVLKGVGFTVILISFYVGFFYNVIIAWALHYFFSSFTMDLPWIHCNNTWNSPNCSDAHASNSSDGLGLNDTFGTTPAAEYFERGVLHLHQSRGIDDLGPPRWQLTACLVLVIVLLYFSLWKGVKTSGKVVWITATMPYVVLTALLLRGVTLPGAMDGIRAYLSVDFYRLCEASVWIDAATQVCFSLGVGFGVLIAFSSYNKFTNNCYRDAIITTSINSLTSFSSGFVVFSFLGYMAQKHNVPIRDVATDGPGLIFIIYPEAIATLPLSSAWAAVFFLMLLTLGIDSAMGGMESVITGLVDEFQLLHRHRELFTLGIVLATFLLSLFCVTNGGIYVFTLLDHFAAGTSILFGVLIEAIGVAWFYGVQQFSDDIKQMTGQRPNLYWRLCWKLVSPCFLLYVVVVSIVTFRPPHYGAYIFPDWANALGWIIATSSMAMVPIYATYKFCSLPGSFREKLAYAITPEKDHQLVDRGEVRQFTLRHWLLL

Rattus norvegicus [6] = experiment: Distribution of radio activity in tissues of unfasted male rats was measured at 30 min of time in liver after intravenous administration; format: ADME, organism-based; details: in vivo, 0.5 h
Rattus norvegicus [7] = experiment: Distribution of radio activity in tissues of unfasted male rats was measured as at 2 min of time in skin after intravenous administration; format: ADME, organism-based; details: in vivo
Rattus norvegicus [8] = experiment: Distribution of radio activity in tissues of unfasted male rats was measured as regional uptake at 30 min of time in ST/CB after intravenous administration; format: ADME, organism-based; details: in vivo, 0.5 h
Rattus norvegicus [9] = experiment: Distribution of radio activity in tissues of unfasted male rats was measured at 60 min of time in brain after intravenous administration; format: ADME, organism-based; details: in vivo, 1 h
Rattus norvegicus [10] = experiment: Distribution of radio activity in tissues of unfasted male rats was measured at 120 min of time in heart after intravenous administration; format: ADME, organism-based; details: in vivo, 2 h
Rattus norvegicus [11] = experiment: Distribution of radio activity in tissues of unfasted male rats was measured as regional uptake at 30 min of time in striatum after intravenous administration; format: ADME, organism-based; details: in vivo, 0.5 h
Rattus norvegicus [12] = experiment: Distribution of radio activity in tissues of unfasted male rats was measured at 120 min of time in brain after intravenous administration; format: ADME, organism-based; details: in vivo, 2 h
Rattus norvegicus [13] = experiment: Distribution of radio activity in tissues of unfasted male rats was measured at 30 min of time in muscle after intravenous administration; format: ADME, organism-based, Muscle tissue; details: in vivo, 0.5 h
Rattus norvegicus [14] = experiment: Distribution of radio activity in tissues of unfasted male rats was measured at 120 min of time in muscle after intravenous administration; format: ADME, organism-based, Muscle tissue; details: in vivo, 2 h
Rattus norvegicus [15] = experiment: Distribution of radio activity in tissues of unfasted male rats was measured at 2 min of time in kidney after intravenous administration; format: ADME, organism-based; details: in vivo
Rattus norvegicus [16] = experiment: Distribution of radio activity in tissues of unfasted male rats was measured as regional uptake at 60 min of time in striatum after intravenous administration; format: ADME, organism-based; details: in vivo, 1 h
Rattus norvegicus [17] = experiment: Distribution of radio activity in tissues of unfasted male rats was measured at 2 min of time in heart after intravenous administration; format: ADME, organism-based; details: in vivo
Rattus norvegicus [18] = experiment: Distribution of radio activity in tissues of unfasted male rats was measured as regional uptake at 60 min of time in cortex after intravenous administration; format: ADME, organism-based; details: in vivo, 1 h
Rattus norvegicus [19] = experiment: Distribution of radio activity in tissues of unfasted male rats was measured at 60 min of time in skin after intravenous administration; format: ADME, organism-based; details: in vivo, 1 h
Rattus norvegicus [20] = experiment: Distribution of radio activity in tissues of unfasted male rats was measured at 60 min of time in muscle after intravenous administration; format: ADME, organism-based, Muscle tissue; details: in vivo, 1 h
Rattus norvegicus [21] = experiment: Distribution of radio activity in tissues of unfasted male rats was measured as regional uptake at 2 min of time in cerebellum after intravenous administration; format: ADME, organism-based; details: in vivo
Rattus norvegicus [22] = experiment: Distribution of radio activity in tissues of unfasted male rats was measured at 120 min of time in lung after intravenous administration.; format: ADME, organism-based; details: in vivo, 2 h
Rattus norvegicus [23] = experiment: Distribution of radio activity in tissues of unfasted male rats was measured as regional uptake at 120 min of time in ST/CB after intravenous administration; format: ADME, organism-based; details: in vivo, 2 h
Rattus norvegicus [24] = experiment: Distribution of radio activity in tissues of unfasted male rats was measured alungblood after intravenous administration; format: ADME, organism-based, Lung; details: in vivo
Rattus norvegicus [25] = experiment: Distribution of radio activity in tissues of unfasted male rats was measured at 2 min of time in blood after intravenous administration; format: ADME, organism-based; details: in vivo
Rattus norvegicus [26] = experiment: Distribution of radio activity in tissues of unfasted male rats was measured as regional uptake at 60 min of time in ST/CB after intravenous administration; format: ADME, organism-based; details: in vivo, 1 h
Rattus norvegicus [27] = experiment: Distribution of radio activity in tissues of unfasted male rats was measured at 30 min of time in kidney after intravenous administration; format: ADME, organism-based; details: in vivo, 0.5 h
Rattus norvegicus [28] = experiment: Distribution of radio activity in tissues of unfasted male rats was measured as regional uptake at 120 min of time in cerebellum after intravenous administration; format: ADME, organism-based; details: in vivo, 2 h
Rattus norvegicus [29] = experiment: Distribution of radio activity in tissues of unfasted male rats was measured as regional uptake at 60 min of time in hippocampus after intravenous administration; format: ADME, organism-based; details: in vivo, 1 h
Rattus norvegicus [30] = experiment: Distribution of radio activity in tissues of unfasted male rats was measured at 120 min of time in liver after intravenous administration; format: ADME, organism-based; details: in vivo, 2 h
Rattus norvegicus [31] = experiment: Distribution of radio activity in tissues of unfasted male rats was measured as regional uptake at 60 min of time in cerebellum after intravenous administration; format: ADME, organism-based; details: in vivo, 1 h

Which Dose/g (Rattus norvegicus [1]) does the source give for `COC(=O)C1C(c2ccc(Cl)cc2)CC2CCC1N2C/C=C\I` (stereo unspecified) here?
Its Dose/g is 0.11%.

And the Injected dose/organ (Rattus norvegicus [2])?
The Injected dose/organ was 26.73%.

And the Injected dose/organ (Rattus norvegicus [3])?
The Injected dose/organ was 0.08%.

And the Dose/g (Rattus norvegicus [4])?
Its Dose/g is 0.05%.

What about the Ki [5] of the same molecule?
Its Ki is 6.3 nM.

What about the Injected dose/organ (Rattus norvegicus [6]) of the same molecule?
The Injected dose/organ was 2.78%.

And the Injected dose/organ (Rattus norvegicus [7])?
The Injected dose/organ was 7.27%.

And the Dose/g (Rattus norvegicus [8])?
The Dose/g was 3%.

What about the Injected dose/organ (Rattus norvegicus [9]) of the same molecule?
Its Injected dose/organ is 0.07%.

And the Injected dose/organ (Rattus norvegicus [10])?
The Injected dose/organ was 0.11%.

What about the Dose/g (Rattus norvegicus [11]) of the same molecule?
The Dose/g was 0.33%.

What about the Injected dose/organ (Rattus norvegicus [12]) of the same molecule?
The Injected dose/organ was 0.04%.

What about the Injected dose/organ (Rattus norvegicus [13]) of the same molecule?
Its Injected dose/organ is 17.43%.

What about the Injected dose/organ (Rattus norvegicus [14]) of the same molecule?
The Injected dose/organ was 9.22%.

What about the Injected dose/organ (Rattus norvegicus [15]) of the same molecule?
Its Injected dose/organ is 2.65%.

And the Dose/g (Rattus norvegicus [16])?
Its Dose/g is 0.11%.

And the Injected dose/organ (Rattus norvegicus [17])?
Its Injected dose/organ is 0.85%.

And the Dose/g (Rattus norvegicus [18])?
Its Dose/g is 0.04%.

And the Injected dose/organ (Rattus norvegicus [19])?
Its Injected dose/organ is 24.81%.

And the Injected dose/organ (Rattus norvegicus [20])?
The Injected dose/organ was 12.22%.

And the Dose/g (Rattus norvegicus [21])?
The Dose/g was 0.82%.

And the Injected dose/organ (Rattus norvegicus [22])?
The Injected dose/organ was 0.4%.

And the Dose/g (Rattus norvegicus [23])?
The Dose/g was 1.9%.

What about the Injected dose/organ (Rattus norvegicus [24]) of the same molecule?
Its Injected dose/organ is 1.23%.

What about the Injected dose/organ (Rattus norvegicus [25]) of the same molecule?
The Injected dose/organ was 5.01%.

What about the Dose/g (Rattus norvegicus [26]) of the same molecule?
Its Dose/g is 2.7%.

And the Injected dose/organ (Rattus norvegicus [27])?
The Injected dose/organ was 0.78%.

And the Dose/g (Rattus norvegicus [28])?
The Dose/g was 0.02%.

What about the Dose/g (Rattus norvegicus [29]) of the same molecule?
The Dose/g was 0.04%.

And the Injected dose/organ (Rattus norvegicus [30])?
The Injected dose/organ was 1.28%.

What about the Dose/g (Rattus norvegicus [31]) of the same molecule?
Its Dose/g is 0.04%.
